A short description of data set [1]: Unbound fraction in mouse plasma. Format: ADME, cell-free.
Data set [2] addresses T1, Epidermal growth factor receptor (Homo sapiens, UniProt P00533, 746-750DEL/T790M). In words: Inhibition of human EGFR T790M/del (746 to 750) deletion mutant using Fl-EEPLYWSFPAKKK-CONH2 as substrate preincubated for 30 mins followed by addition of substrate measured after 30 mins by Morrison plot analysis. The settings on record: read-out: Ki(app). Format: protein assay.

Data set [3] can be described thus: Plasma clearance in rat at 5 mg/kg, iv. Format: ADME, organism-based.
Data set [4] concerns Rattus norvegicus. Kind of data set: Unbound plasma clearance in rat at 5 mg/kg, iv. Format: ADME, organism-based. As to conditions: in vivo.
For another data set, the system named is Liver microsome. In words: Drug level in rat liver microsomes treated with (R)-1-[6-[2-(cis-3-Fluoro-4-methoxypiperidin-1-yl)pyrimidin-4-ylamino]-1-((S)-2,2,2-trifluoro-1-methylethyl)-1H-imidazo[4,5-c]pyridin-2-yl]ethanol. Format: ADME. (Liver microsomes are vesicles of endoplasmic reticulum, rich in cytochrome P450 enzymes.)
The subject of data set [5] is Hepatocyte. In words: Drug level in rat hepatocytes treated with (R)-1-[6-[2-(cis-3-Fluoro-4-methoxypiperidin-1-yl)pyrimidin-4-ylamino]-1-((S)-2,2,2-trifluoro-1-methylethyl)-1H-imidazo[4,5-c]pyridin-2-yl]ethanol. Format: ADME, cell-based.
The subject of data set [6] is Mus musculus. In words: In vivo inhibition of EGFR phosphorylation in human NCI-H1975 cells xenografted in SCID mouse at 300 mg/kg, po qd everyday for 3 days measured 2 to 8 hrs post last dose by electrochemiluminescent immunoassay. Format: functional. For orientation: Xenograft models place foreign cells or tissue in a host animal.
The test system of data set [7] is Mus musculus. In words: In vivo inhibition of EGFR in human NCI-H1975 cells xenografted in SCID mouse assessed as suppression of ERK phosphorylation at 300 mg/kg, po qd everyday for 3 days measured 2 to 8 hrs post last dose by electrochemiluminescent immunoassay. Format: functional.
The subject of data set [8] is Mus musculus. In words: In vivo inhibition of EGFR in human NCI-H1975 cells xenografted in SCID mouse assessed as suppression of AKT phosphorylation at 300 mg/kg, po qd everyday for 3 days measured 2 to 8 hrs post last dose by electrochemiluminescent immunoassay. Format: functional.
Data set [9] concerns Mus musculus. In words: In vivo inhibition of EGFR in human NCI-H1975 cells xenografted in po dosed SCID mouse assessed as suppression of ERK phosphorylation administered as qd everyday for 3 days measured 2 to 8 hrs post last dose by electrochemiluminescent immunoassay. Format: functional.
Data set [10] relates to Mus musculus. Kind of data set: In vivo inhibition of EGFR in human NCI-H1975 cells xenografted in po dosed SCID mouse assessed as suppression of AKT phosphorylation administered as qd everyday for 3 days measured 2 to 8 hrs post last dose by electrochemiluminescent immunoassay. Format: functional.
The subject of a further data set is NCI-H1975. Kind of data set: Antiproliferative activity against human NCI-H1975 cells expressing EGFR T790M/L858R double mutant after 72 hrs by luminescence assay. The settings on record: NCI-H1975, 72 h. Format: functional, cell-based.
In a further data set the test system is NCI-H292. In words: Antiproliferative activity against human NCI-H292 cells expressing wild type EGFR after 72 hrs by luminescence assay. Format: functional, cell-based. As to conditions: NCI-H292, 72 h.
The nature of data set [11]: Antiproliferative activity against erlotinib-resistant human PC9 cells expressing EGFR with ex19del and T790M mutations after 72 hrs by luminescence assay. As to conditions: PC-9, 72 h. Format: functional, cell-based.
Data set [12] is described as follows: Half life in rat. Format: ADME, organism-based. The settings on record: in vivo.
Data set [13] in a line: Volume of distribution at steady state in rat. Format: ADME, organism-based. The settings on record: in vivo, read-out: Vdss.
Data set [14] is described as follows: Oral bioavailability in rat. Format: ADME, organism-based. The settings on record: in vivo.
The target in data set [15] is T1, Epidermal growth factor receptor. In words: Inhibition of EGFR T790M/del (746 to 750) deletion mutant phosphorylation in erlotinib-resistant human PC9 cells preincubated for 1 hr followed by stimulation with EGF for 8 mins by electrochemiluminescent immunoassay. Format: cell-based, PC-9.
Data set [16] has as its target Epidermal growth factor receptor (Homo sapiens, UniProt P00533, L858R/T790M).
Data set [17] deals with T2, Epidermal growth factor receptor (Homo sapiens, UniProt P00533).
T2 sequence (P00533 whole entry): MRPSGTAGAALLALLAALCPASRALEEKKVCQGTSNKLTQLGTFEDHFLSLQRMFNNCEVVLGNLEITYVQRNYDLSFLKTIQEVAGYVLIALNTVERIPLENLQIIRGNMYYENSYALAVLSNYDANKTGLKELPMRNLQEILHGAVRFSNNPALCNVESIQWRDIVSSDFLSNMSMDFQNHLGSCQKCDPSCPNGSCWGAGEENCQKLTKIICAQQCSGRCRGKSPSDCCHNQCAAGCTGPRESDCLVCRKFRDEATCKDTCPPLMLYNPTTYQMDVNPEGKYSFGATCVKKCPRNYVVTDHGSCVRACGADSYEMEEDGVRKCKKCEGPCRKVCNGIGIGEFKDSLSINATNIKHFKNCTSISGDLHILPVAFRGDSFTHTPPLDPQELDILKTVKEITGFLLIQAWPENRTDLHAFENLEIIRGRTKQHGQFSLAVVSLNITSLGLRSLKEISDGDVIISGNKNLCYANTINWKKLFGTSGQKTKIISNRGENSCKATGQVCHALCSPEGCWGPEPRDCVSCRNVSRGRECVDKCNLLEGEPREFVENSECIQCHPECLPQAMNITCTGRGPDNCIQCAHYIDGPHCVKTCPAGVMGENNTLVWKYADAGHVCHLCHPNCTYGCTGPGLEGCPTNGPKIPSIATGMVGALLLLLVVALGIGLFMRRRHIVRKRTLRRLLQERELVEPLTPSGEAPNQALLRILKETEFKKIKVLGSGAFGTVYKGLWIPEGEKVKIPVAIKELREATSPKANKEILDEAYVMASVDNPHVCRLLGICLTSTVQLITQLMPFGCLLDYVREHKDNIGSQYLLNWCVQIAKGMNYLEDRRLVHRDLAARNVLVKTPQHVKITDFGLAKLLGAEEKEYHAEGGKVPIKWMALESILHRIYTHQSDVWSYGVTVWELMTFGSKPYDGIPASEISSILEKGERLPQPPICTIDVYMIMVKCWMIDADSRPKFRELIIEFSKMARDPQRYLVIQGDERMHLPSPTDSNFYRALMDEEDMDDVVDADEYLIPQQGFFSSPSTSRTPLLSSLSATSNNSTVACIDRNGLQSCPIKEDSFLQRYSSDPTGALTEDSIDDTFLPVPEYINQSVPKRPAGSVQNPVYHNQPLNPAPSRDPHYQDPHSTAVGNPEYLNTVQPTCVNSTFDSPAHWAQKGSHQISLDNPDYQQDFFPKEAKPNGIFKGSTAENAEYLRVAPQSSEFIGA
The target of data set [18] is T2, Epidermal growth factor receptor. The source holds these as a separate data set.
Description: Inhibition of EGFR phosphorylation in human NCI-H292 cells preincubated for 1 hr followed by stimulation with EGF for 8 mins by electrochemiluminescent immunoassay
A further data set can be described thus: physchem. As to conditions: buffer, pH 7.4, logD.
Data set [19] concerns Hepatocyte. In words: Stability in human hepatocytes. Format: ADME, cell-based.
For a further data set, the species on record is Homo sapiens. Kind of data set: Selectivity ratio of Ki for human wild type EGFR to Ki for human EGFR T790M/L858R double mutant.
Data set [20] is described as follows: Kinetic solubility of compound in PBS at pH 7.4 at 100 uM after 24 hrs. Format: physicochemical. As to conditions: read-out: Kinetic_solubility.
Data set [21] in a line: Apparent permeability from apical to basolateral side in MDCK cells. Format: ADME, cell-based, Canis lupus familiaris. As to conditions: dog.
Data set [22] is described as follows: Oral bioavailability in rat at 10 mg/kg. Format: ADME, organism-based. As to conditions: in vivo.
The nature of data set [23]: Chemical stability under acidic conditions assessed as amide hydrolysis to acid form. Format: physicochemical.
The nature of data set [24]: Plasma clearance in rat at 0.5 mg/kg, iv. Format: ADME, organism-based.
In data set [25] the test system is Rattus norvegicus. In words: Unbound plasma clearance in rat at 0.5 mg/kg, iv. Format: ADME, organism-based. As to conditions: in vivo.

The values below come from ChEMBL document CHEMBL3734664, “Noncovalent Mutant Selective Epidermal Growth Factor Receptor Inhibitors: A Lead Optimization Case Study” (J Med Chem, 2015).

The structures appear in SMILES notation. Converted amounts (≈) assume the structure as drawn.

Epidermal growth factor receptor (Homo sapiens, UniProt P00533, L858R/T790M), sequence (P00533 25-1210 T790M/L858R limits assumed): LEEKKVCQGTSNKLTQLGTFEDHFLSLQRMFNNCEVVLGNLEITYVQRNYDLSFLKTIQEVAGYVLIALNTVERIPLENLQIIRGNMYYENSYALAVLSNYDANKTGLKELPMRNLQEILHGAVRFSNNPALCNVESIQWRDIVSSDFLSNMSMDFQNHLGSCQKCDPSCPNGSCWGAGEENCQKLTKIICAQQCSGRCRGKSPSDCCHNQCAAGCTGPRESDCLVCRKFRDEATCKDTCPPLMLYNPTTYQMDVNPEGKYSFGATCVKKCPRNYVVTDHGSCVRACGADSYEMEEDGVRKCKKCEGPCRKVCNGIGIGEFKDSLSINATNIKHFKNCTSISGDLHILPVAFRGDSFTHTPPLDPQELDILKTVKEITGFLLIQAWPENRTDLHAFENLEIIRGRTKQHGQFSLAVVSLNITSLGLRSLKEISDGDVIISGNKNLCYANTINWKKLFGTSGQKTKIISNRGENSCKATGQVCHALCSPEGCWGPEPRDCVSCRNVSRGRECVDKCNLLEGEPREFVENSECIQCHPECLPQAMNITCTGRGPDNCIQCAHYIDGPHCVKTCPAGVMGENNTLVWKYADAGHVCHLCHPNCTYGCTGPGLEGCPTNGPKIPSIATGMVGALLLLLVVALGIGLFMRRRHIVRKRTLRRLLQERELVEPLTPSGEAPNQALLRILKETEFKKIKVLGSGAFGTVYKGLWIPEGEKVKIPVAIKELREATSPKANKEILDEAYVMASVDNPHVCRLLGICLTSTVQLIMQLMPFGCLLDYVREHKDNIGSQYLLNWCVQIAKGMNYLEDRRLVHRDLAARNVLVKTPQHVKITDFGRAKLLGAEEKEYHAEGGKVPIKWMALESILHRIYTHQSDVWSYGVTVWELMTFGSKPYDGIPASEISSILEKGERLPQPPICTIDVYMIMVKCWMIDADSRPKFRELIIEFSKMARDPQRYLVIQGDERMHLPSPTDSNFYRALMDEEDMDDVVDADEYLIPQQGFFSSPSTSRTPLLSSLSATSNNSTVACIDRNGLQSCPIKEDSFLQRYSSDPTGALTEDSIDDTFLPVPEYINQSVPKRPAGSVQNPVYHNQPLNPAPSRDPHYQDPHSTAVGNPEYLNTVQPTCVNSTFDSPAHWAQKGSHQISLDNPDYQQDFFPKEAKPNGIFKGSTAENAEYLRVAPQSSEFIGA
T1 sequence (P00533 whole entry, looked up, stated change not applied): as the sequence (P00533 whole entry) above
Description for physchem: Lipophilicity, log D of the compound at pH 7.4 by microscale shake flask method

A word on the fraction unbound: it is the share of the substance not bound to proteins or other matrix. A lower fraction unbound goes with little free substance. In general, clearance refers to the volume of plasma or blood freed of the substance per unit of time. A lower clearance goes with inefficient removal. For orientation: inhibition in vivo means the percentage by which the read-out fell short of the control. As a reminder, the EC50 is the midpoint of the concentration-response curve. One may read the half-life as the time in which the quantity being followed falls by half. High values mean slow loss, low ones fast loss. A word on the bioavailability: it is the share of a dose that reaches the circulation, judged against a reference dose that is usually intravenous. Lower therefore signals little systemic uptake. The term IC50 denotes the concentration that inhibits the measured activity by half. The term logD denotes lipophilicity at a set pH, counting ionised and neutral species. A lower logD goes with lower lipophilicity. For the molecule `C[C@@H](O)c1nc2cnc(Nc3ccnc(N4CC[C@H](O)[C@H](F)C4)n3)cc2n1[C@H](C)C(F)(F)F`, in data set [1], the fraction unbound is 0.207. In addition, the Ki was 6 nM in data set [2], 2.5 nM in data set [16] and 313 nM in [17]. In data set [3], this molecule returned a clearance of 71 mL/min/kg. For the same molecule, the CL free in the data set on Rattus norvegicus [4] came out at 348 mL/min/kg. The Drug metabolism entry in the data set with Liver microsome and in the data set with Hepatocyte [5] was “metabolite_detected” each time. Also, the inhibition in vivo at 300 mg/kg with Mus musculus [6] was greater than 90%; in the data set with Mus musculus [7], greater than 90%; with Mus musculus [8], greater than 65%. The fEC50 is 0.3 µM with Mus musculus [9] and 0.5 µM in the data set on Mus musculus [10]. Also, the EC50 was 868 nM in the data set on NCI-H1975, greater than 10000 nM with NCI-H292 and 170 nM in data set [11]. For the same molecule, the half-life in data set [12] is 42.6 min. Further, the Vd in data set [13] came to 3.5 L/kg. Further, the bioavailability in data set [14] is 29%. Moreover, the IC50 in [15] is 81 nM; in data set [18], greater than 10000 nM. In addition, the logD in the data set “physchem” turned out to be 1.8.
One may read the Papp A→B as how fast a substance crosses the layer from the apical side. As to `COC1CCN(c2nccc(Nc3cc4c(cn3)nc(C)n4C(C)C)n2)CC1`, the Stability entry with Hepatocyte [19] is listed as “Stable”. Also, in [3], the clearance was 40 mL/min/kg. Also, the CL free with Rattus norvegicus [4] turned out to be 620 mL/min/kg. Further, a half-maximal response in the data set on NCI-H1975 (EC50) required 6700 nM. Moreover, in the data set listed under Homo sapiens, the Ratio Ki came to 46. For the same molecule, the solubility kinetic at 24 h, 100 µM in data set [20] stood at 87 µM (≈ 33.2 µg/mL). For the same molecule, the Papp A→B in [21] was 29 ×10⁻⁶ cm/s. Moreover, the bioavailability in data set [22] is 30%. Besides, the results for the Ki in data set [16] and in data set [17] were 19 nM and 875 nM, respectively. The molecule further returned an IC50 in data set [18] greater than 10000 nM. In addition, the logD in the data set “physchem” is 2.4.
On to `Cc1nc2cnc(Nc3ccnc(NCC(C)(C)C(N)=O)n3)cc2n1C(C)C`, for which the Stability result in data set [23] is “Unstable”. The clearance in data set [24] was 250 mL/min/kg. The molecule also had a CL free in the data set with Rattus norvegicus [25] of 909 mL/min/kg. For the same molecule, the Ki in [16] was found to be 22 nM; in data set [17], 390 nM. For the same molecule, the logD in “physchem” came to 1.5.
